Assays:
[1] = biological target: T1, recombinant human B1 receptors (Homo sapiens, UniProt P46663); experiment: Functional assay: antagonist potency by cytosolic calcium measurement (plate reader fluorimeter) in CHO-B1 cells, agonist LysDABK; assay type: cell-based; conditions: CHO-B1 cells, inhibition of LysDABK (EC80)-evoked [Ca2+]i elevation; read-out: B1 func.
T1 construct: host or cells: CHO (CHO-B1)
T1 sequence (P46663 1-353): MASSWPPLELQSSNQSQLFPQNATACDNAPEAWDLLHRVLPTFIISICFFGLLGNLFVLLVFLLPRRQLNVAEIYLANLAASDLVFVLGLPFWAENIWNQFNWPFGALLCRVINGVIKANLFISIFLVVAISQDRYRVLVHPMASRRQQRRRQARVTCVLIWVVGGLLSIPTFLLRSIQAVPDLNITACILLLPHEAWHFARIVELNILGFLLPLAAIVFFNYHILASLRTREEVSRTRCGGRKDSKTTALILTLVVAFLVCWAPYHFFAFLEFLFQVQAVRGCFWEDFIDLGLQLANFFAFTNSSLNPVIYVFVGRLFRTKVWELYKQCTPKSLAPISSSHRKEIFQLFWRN
Method in brief: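 IC50 is the concentration giving half-maximal inhibition of the LysDABK (EC80) calcium response, fitted from at least three experiments. CHO cells stably expressing human B1 were dye-loaded, exposed to compound for 20-25 min, then read by fluo-4 fluorescence (ΔF/F) at 37 °C.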

[2] = biological target: T2, human recombinant bradykinin B1 receptor (Homo sapiens, UniProt P46663); experiment: Human recombinant bradykinin B1 receptor competitive radioligand binding; conditions: hB1 expressed in CHO cells, [3H]-[Des-Arg10] Kallidin radioligand; read-out: B1 binding
T2 construct: host or cells: CHO cells, clone hB1-A5
T2 sequence (P46663 1-353): T1 sequence (P46663 1-353)
Method in brief: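 Membranes from CHO cells expressing hB1 (20 μg protein/tube) incubated 15 min at 25° C. with [3,4-prolyl-3,4-^3H(N)]-[Des-Arg^10] Kallidin; nonspecific binding defined with 10 μM Lys-des-Arg^9-Bradykinin. Bound label collected by filtration and counted. IC50 from ≥7-point curves in triplicate; Ki by Cheng-Prusoff.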

Row | SMILES | IC50 [1] [nM] | Ki [2] [nM]
1 | COc1ccc2c(c1)cc(-c1nnc(C)o1)n2-c1ccc(CNC(=O)C2(NC(=O)c3cc(OC)no3)CC2)cc1 [Example 126, 3-Methoxy-isoxazole-5-carboxylic acid (1-{4-[5-methoxy-2-(5-methyl-[1,3,4]oxadiazol-2-yl)-indol-1-yl]-benzylcarbamoyl}-cyclopropyl)-amide] | 20 to 100 | < 20
2 | COC(=O)c1c(Cl)c2ccccc2n1-c1ccc(CNC(=O)C2(NC(=O)C(F)(F)F)CC2)cc1 [Example 10, 3-Chloro-1-[4-({[1-(2,2,2-trifluoro-acetylamino)-cyclopropanecarbonyl]-amino}-methyl)-phenyl]-1H-indole-2-carboxylic acid methyl ester] | < 20 | < 20
3 | Cc1nc(-c2c(Cl)c3ccccc3n2-c2ccc(CNC(=O)C3(NC(=O)c4cn[nH]c4)CC3)cc2)no1 [Example 141, 1H-Pyrazole-4-carboxylic acid (1-{4-[3-chloro-2-(5-methyl-[1,2,4]oxadiazol-3-yl)-indol-1-yl]-benzylcarbamoyl}-cyclopropyl)-amide] | < 20 | < 20
4 | COc1ccc2c(c1)cc(C#N)n2-c1ccc(CNC(=O)C2(NC(=O)c3cc(OC)no3)CC2)cc1 [Example 48, 3-Methoxy-isoxazole-5-carboxylic acid {1-[4-(2-cyano-5-methoxy-indol-1-yl)-benzylcarbamoyl]-cyclopropyl}-amide] | < 20 | < 20

Source: patent US20130217702A1 (Richter Gedeon Nyrt., priority 2010, published 2013)
